Measurements taken from patent publication US8969335B2, “Benzonitrile derivatives as kinase inhibitors” (MERCK PATENT GmbH, priority 2011, dated 2015).

Assays:
IKKε = IKKε (Homo sapiens (Human), UniProt Q14164); assay: IKKε kinase assay (384-well flashplate assay); assay type: biochemical; conditions: 1 nM IKKε, 10 μM ATP, 30° C., 2 hours; read-out: IKKε enzyme assay IC50
Method: Test for the Inhibition of IKKε
IKKε—Kinase Assay (IKKepsilon)
The kinase assay is performed as 384-well flashplate assay (for example for Topcount measurement).
1 nM IKKε, 800 nM biotinylated IκBα(19-42) peptide (Biotin-C6-C6-[…]) and 10 μM ATP (spiked with 0.3 μCi of ^33P-ATP/well) are incubated at 30° C. for 2 hours in a total volume of 50 μl (10 mM MOPS, 10 mM Mg acetate, 0.1 mM EGTA, 1 mM dithiothreitol, 0.02% of Brij35, 0.1% of BSA, 0.1% of BioStab, pH 7.5) with or without test compound. The reaction is stopped using 25 μl of 200 mM EDTA. After 30 min at room temperature, the liquid is removed, and each well is washed three times with 100 μl of 0.9% sodium chloride solution. Non-specific reaction is determined in the presence of 3 μM MSC2119074 (BX-795). The radioactivity is measured using a Topcount (PerkinElmer). The results (for example IC50 values) are calculated using program tools provided by the IT Department (for example AssayExplorer, Symyx).

[1] = target: TANK binding kinase (TBK1) (Homo sapiens (Human), UniProt Q9UHD2); assay: TBK1 enzyme assay (384-well flashplate kinase assay); assay type: biochemical; conditions: 0.6 nM TBK1, 10 μM ATP, 30° C., 120 min
TANK binding kinase (TBK1), sequence (Q9UHD2 whole entry): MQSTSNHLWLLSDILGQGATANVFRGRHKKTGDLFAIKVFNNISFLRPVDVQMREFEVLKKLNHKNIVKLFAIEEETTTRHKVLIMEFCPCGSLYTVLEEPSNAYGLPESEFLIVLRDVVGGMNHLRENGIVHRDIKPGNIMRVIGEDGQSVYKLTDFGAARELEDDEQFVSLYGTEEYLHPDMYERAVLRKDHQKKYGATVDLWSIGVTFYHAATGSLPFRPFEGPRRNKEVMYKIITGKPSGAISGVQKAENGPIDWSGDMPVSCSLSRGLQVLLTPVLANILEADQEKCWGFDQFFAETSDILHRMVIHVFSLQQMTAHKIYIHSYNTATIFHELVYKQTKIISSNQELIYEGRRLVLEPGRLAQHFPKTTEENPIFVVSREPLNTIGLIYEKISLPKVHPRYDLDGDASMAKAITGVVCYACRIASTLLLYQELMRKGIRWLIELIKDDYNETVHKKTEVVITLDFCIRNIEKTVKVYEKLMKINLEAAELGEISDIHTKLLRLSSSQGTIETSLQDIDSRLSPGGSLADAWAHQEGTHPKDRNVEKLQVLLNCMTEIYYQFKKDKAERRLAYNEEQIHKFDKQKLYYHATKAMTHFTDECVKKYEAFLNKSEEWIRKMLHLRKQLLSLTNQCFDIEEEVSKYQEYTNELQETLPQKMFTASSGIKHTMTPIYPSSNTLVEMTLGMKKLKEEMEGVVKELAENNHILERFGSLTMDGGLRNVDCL

IKKε, sequence (Q14164 whole entry): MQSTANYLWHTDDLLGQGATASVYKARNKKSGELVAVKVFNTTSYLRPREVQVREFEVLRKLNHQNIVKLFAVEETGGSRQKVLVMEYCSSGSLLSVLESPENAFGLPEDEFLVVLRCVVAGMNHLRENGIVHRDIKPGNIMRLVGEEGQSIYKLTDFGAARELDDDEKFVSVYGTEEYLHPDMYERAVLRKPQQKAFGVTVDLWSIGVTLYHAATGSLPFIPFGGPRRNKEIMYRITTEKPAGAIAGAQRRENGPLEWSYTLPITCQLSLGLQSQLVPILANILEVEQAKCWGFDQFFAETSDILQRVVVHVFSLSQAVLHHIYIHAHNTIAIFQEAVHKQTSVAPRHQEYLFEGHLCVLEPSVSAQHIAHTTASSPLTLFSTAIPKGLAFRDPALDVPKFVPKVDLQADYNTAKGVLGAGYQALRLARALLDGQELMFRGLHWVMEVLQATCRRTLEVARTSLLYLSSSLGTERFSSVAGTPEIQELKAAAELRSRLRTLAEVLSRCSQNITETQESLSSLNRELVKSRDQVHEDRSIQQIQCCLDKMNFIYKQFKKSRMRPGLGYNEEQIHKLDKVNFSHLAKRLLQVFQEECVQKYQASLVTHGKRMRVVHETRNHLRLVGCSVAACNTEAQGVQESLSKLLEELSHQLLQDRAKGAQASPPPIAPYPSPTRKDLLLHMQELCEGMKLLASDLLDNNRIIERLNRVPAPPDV

SMILES | IC50 (IKKε) | IC50 [1]
N#Cc1cc(-c2ccnc(Nc3cn[nH]c3)c2)ccc1OCC1CCC1 [Compound A109, 2-cyclobutylmethoxy-5-[2-(1H-pyrazol-4-ylamino)pyridin-4-yl]benzonitrile] | 140 nM | 380 nM
N#Cc1cc(-c2ccnc(Nc3ccc(C(N)=O)cn3)c2)ccc1OC1CCOCC1 [Compound A37, 6-{4-[3-Cyano-4-(tetrahydropyran-4-yloxy)phenyl]pyridin-2-ylamino}nicotinamide] | 21 nM | 32 nM
CN1CCN(c2ccnc(Nc3cc(-c4ccc(OC5CCOCC5)c(C#N)c4)ccn3)c2)CC1 [Compound A84, 5-{2-[4-(4-methylpiperazin-1-yl)pyridin-2-ylamino]pyridin-4-yl}-2-(tetrahydropyran-4-yloxy)benzonitrile] | 210 nM | 350 nM
N#Cc1cc(-c2ccnc(Nc3ccc(CN4CC5(COC5)C4)cn3)c2)ccc1OC1CCOCC1 [Compound A88, 5-{2-[5-(2-oxa-6-azaspiro[3.3]hept-6-ylmethyl)pyridin-2-yl-amino]pyridin-4-yl}-2-(tetrahydropyran-4-yloxy)benzonitrile] | 45 nM | 41 nM
N#Cc1cc(-c2ccnc(Nc3ncccn3)c2)ccc1OC1CCOCC1 [Compound A14, 5-[2-(Pyrimidin-2-ylamino)pyridin-4-yl]-2-(tetrahydropyran-4-yloxy)benzonitrile] | 1200 nM | 670 nM
N#Cc1cc(-c2ccnc(Nc3cnn(CCC4CCNCC4)c3)n2)ccc1OC1CCOCC1 [Compound A45, 5-{2-[1-(2-Piperidin-4-ylethyl)-1H-pyrazol-4-ylamino]pyrimidin-4-yl}-2-(tetrahydropyran-4-yloxy)benzonitrile] | 2 nM | 2 nM

The next lines start with the values.

IC50 (IKKε) | IC50 [1] | SMILES
200 nM | 160 nM | Cn1nc(Nc2nccc(-c3ccc(OC4CCOCC4)c(C#N)c3)n2)ccc1=O [Compound A68, 5-[2-(1-methyl-6-oxo-1,6-dihydropyridazin-3-ylamino)pyrimidin-4-yl]-2-(tetrahydropyran-4-yloxy)benzonitrile]
27 nM | 18 nM | N#Cc1cc(-c2ccnc(Nc3cnn(C[C@H]4C[C@@H]4CO)c3)c2)ccc1OC1CCOCC1 [Compound A26, 5-{2-[1-((1S,2S)-2-Hydroxymethylcyclopropylmethyl)-1H-pyrazol-4-ylamino]-pyridin-4-yl}-2-(tetrahydropyran-4-yloxy)benzonitrile]
190 nM | 6600 nM | CC(=O)N1CCC(COc2ccc(-c3ccnc(Nc4cnn(C5CCNCC5)c4)c3)cc2C#N)CC1 [Compound A116, 2-(1-acetylpiperidin-4-ylmethoxy)-5-[2-(1-piperidin-4-yl-1H-pyrazol-4-ylamino)pyridin-4-yl]benzonitrile]
150 nM | 230 nM | N#Cc1cc(-c2ccnc(Nc3cc(N4CCOCC4)ccn3)c2)ccc1OC1CCOCC1 [Compound A82, 5-[2-(4-morpholin-4-ylpyridin-2-ylamino)pyridin-4-yl]-2-(tetrahydropyran-4-yloxy)benzonitrile]
25 nM | 12 nM | N#Cc1cc(-c2ccnc(Nc3cnn(CC4CCOC4)c3)n2)ccc1OC1CCOCC1 (stereo not shown) [Compound A41, 5-{2-[1-(Tetrahydrofuran-3-ylmethyl)-1H-pyrazol-4-ylamino]pyrimidin-4-yl}-2-(tetrahydropyran-4-yloxy)benzonitrile]
120 nM | 170 nM | N#Cc1cc(-c2ccnc(Nc3cc(C(=O)O)ccn3)c2)ccc1OC1CCOCC1 [Compound A65, 2-{4-[3-cyano-4-(tetrahydropyran-4-yloxy)phenyl]pyridin-2-ylamino}isonicotinic acid]
140 nM |  | N#Cc1cc(-c2ccnc(Nc3ncc4c(n3)CCNC4)c2)ccc1OC1CCOCC1 [Compound A36, 2-(Tetrahydropyran-4-yloxy)-5-[2-(5,6,7,8-tetrahydropyrido[4,3-d]pyrimidin-2-ylamino)pyridin-4-yl]benzonitrile]
